Measurements taken from article PMC9481151, “Discovery of new symmetrical and asymmetrical nitrile-containing 1,4-dihydropyridine derivatives as dual kinases and P-glycoprotein inhibitors: synthesis, in vitro assays, and in silico studies” (Journal of Enzyme Inhibition and Medicinal Chemistry, 2022).
In brackets after ≈: the same amount, converted by molar mass.

How the values were obtained:
SF-539 = experiment: NCI single dose (10 µM) SRB screen; type: cell-based, human; conditions: CNS cancer, 48 h
CAKI-1 = experiment: NCI single dose (10 µM) SRB screen; type: cell-based, human; conditions: renal cancer, 48 h
BT-549 = experiment: NCI single dose (10 µM) SRB screen; type: cell-based, human; conditions: breast cancer, 48 h
MCF7 = experiment: NCI single dose (10 µM) SRB screen; type: cell-based, human; conditions: breast cancer, 48 h
OVCAR-8 = experiment: NCI single dose (10 µM) SRB screen; type: cell-based, human; conditions: ovarian cancer, 48 h
Aspergillus flavus = experiment: Agar well diffusion method; conditions: for zone of inhibition at 1000 µg/mL: Aspergillus flavus, 24 h, read-out: Diameter of inhibition zone, A. flavus; for % activity index, A. flavus: relative to clotrimazole
HL-60(TB) = experiment: NCI single dose (10 µM) SRB screen; type: cell-based, human; conditions: leukaemia, 48 h
RXF 393 = experiment: NCI single dose (10 µM) SRB screen; type: cell-based, human; conditions: renal cancer, 48 h
UO-31 = experiment: NCI single dose (10 µM) SRB screen; type: cell-based, human; conditions: renal cancer, 48 h
UACC-62 = experiment: NCI single dose (10 µM) SRB screen; type: cell-based, human; conditions: melanoma, 48 h
E. coli = experiment: MIC, two-fold microbroth dilution method; conditions: Escherichia coli, read-out: MIC (µg/mL) E. coli
B. subtilis = experiment: MIC, two-fold microbroth dilution method; conditions: Bacillus subtilis, read-out: MIC (µg/mL) B. subtilis
S. aureus = experiment: MIC, two-fold microbroth dilution method; conditions: Staphylococcus aureus, read-out: MIC (µg/mL) S. aureus
NCI-H322M = experiment: NCI single dose (10 µM) SRB screen; type: cell-based; conditions: non-small cell lung cancer, 48 h
UACC-257 = experiment: NCI single dose (10 µM) SRB screen; type: cell-based, human; conditions: melanoma, 48 h
P. aeruginosa = experiment: MIC, two-fold microbroth dilution method; conditions: Pseudomonas aeruginosa, read-out: MIC (µg/mL) P. aeruginosa
C. albicans = experiment: MIC, two-fold microbroth dilution method; conditions: Candida albicans, read-out: MIC (µg/mL) C. albicans
ACHN = experiment: NCI single dose (10 µM) SRB screen; type: cell-based, human; conditions: renal cancer, 48 h
A. flavus = experiment: MIC, two-fold microbroth dilution method; conditions: Aspergillus flavus, read-out: MIC (µg/mL) A. flavus
A549/ATCC = experiment: NCI single dose (10 µM) SRB screen; type: cell-based, human; conditions: non-small cell lung cancer, 48 h
OVCAR-4 = experiment: NCI single dose (10 µM) SRB screen; type: cell-based, human; conditions: ovarian cancer, 48 h
A498 = experiment: NCI single dose (10 µM) SRB screen; type: cell-based, human; conditions: renal cancer, 48 h

Compound	GI% SF-539 (SF-539)	GI% CAKI-1 (CAKI-1)	GI% BT-549 (BT-549)	GI% MCF7 (MCF7)	GI% OVCAR-8 (OVCAR-8)	zone of inhibition at 1000 µg/mL (Aspergillus flavus) [mm]	% activity index, A. flavus (Aspergillus flavus) [%]	GI% HL-60(TB) (HL-60(TB)) [%]	GI% RXF 393 (RXF 393)	GI% UO-31 (UO-31)	GI% UACC-62 (UACC-62)	MIC (E. coli) [µg/mL]	MIC (B. subtilis) [µg/mL]	MIC (S. aureus) [µg/mL]	GI% NCI-H322M (NCI-H322M)	GI% UACC-257 (UACC-257)	MIC (P. aeruginosa) [µg/mL]	MIC (C. albicans) [µg/mL]	GI% ACHN (ACHN)	MIC (A. flavus) [µg/mL]	further results
CCOC(=O)C1=C(C)NC(C)=C(C(=O)OC(C)(C)C)C1c1cccc(C#N)c1 (racemic) [Compound 2j, (±)-3-Tert-butyl 5-ethyl 4-(3-cyanophenyl)-2,6-dimethyl-1,4-dihydropyridine-3,5-dicarboxylate]	– (Only GI% ≥ 10 are shown)	17%	– (Only GI% ≥ 10 are shown)	– (Only GI% ≥ 10 are shown)	– (Only GI% ≥ 10 are shown)	20	80	19	– (Only GI% ≥ 10 are shown)	– (Only GI% ≥ 10 are shown)	10%	1 (≈ 2.61 µM)	4 (≈ 10.5 µM)	8 (≈ 20.9 µM)	– (Only GI% ≥ 10 are shown)	– (Only GI% ≥ 10 are shown)	4 (≈ 10.5 µM)	16 (≈ 41.8 µM)	– (Only GI% ≥ 10 are shown)	8 (≈ 20.9 µM)	GI% A549/ATCC (A549/ATCC): 11%; GI% OVCAR-4 (OVCAR-4): – (Only GI% ≥ 10 are shown); GI% A498 (A498): – (Only GI% ≥ 10 are shown); melting point: 152 to 153 °C
CCOC(=O)C1=C(C)NC(C)=C(C(=O)OCCOC)C1c1cccc(C#N)c1 (racemic) [Compound 2k, (±)-3-Ethyl 5-(2-methoxyethyl) 4-(3-cyanophenyl)-2,6-dimethyl-1,4-dihydropyridine-3,5-dicarboxylate]	– (Only GI% ≥ 10 are shown)	– (Only GI% ≥ 10 are shown)	– (Only GI% ≥ 10 are shown)	– (Only GI% ≥ 10 are shown)	– (Only GI% ≥ 10 are shown)	18	72	12	– (Only GI% ≥ 10 are shown)	– (Only GI% ≥ 10 are shown)	– (Only GI% ≥ 10 are shown)	4 (≈ 10.4 µM)	8 (≈ 20.8 µM)	16 (≈ 41.6 µM)	– (Only GI% ≥ 10 are shown)	– (Only GI% ≥ 10 are shown)	8 (≈ 20.8 µM)	32 (≈ 83.2 µM)	– (Only GI% ≥ 10 are shown)	32 (≈ 83.2 µM)	GI% A549/ATCC (A549/ATCC): – (Only GI% ≥ 10 are shown); GI% OVCAR-4 (OVCAR-4): – (Only GI% ≥ 10 are shown); GI% A498 (A498): 21%; melting point: 133 to 134 °C
